System: PBMCs and HCV peptide-specific T cell lines from HCV-infected subjects
Type: cell-based, human

Substance | T cell response to peptide, in words | response to positive control
HSKRKCDEL | no detectable response | 
phytohemagglutinin |  | uniformly positive

Reference: paper PMC2213263 (The Journal of Experimental Medicine, 2005)
